Source: US10548858B2, “Inhibition of sphingosine 1-phosphate receptor for treatment and prevention of lymphedema” (Memorial Sloan Kettering Cancer Center, priority 2016, dated 2020)
“Also recorded” adds a separate entry of the source.

What was measured:
[1] = test system: lymphedema (mouse tail lymphatic ablation); assay: Mouse tail skin/lymphatic ablation model of lymphedema, 6 weeks of treatment; type: in vivo; settings: wild-type mice, 6 weeks after lymphatic ablation
From the text: To determine if FTY720 treatment can be useful for treating lymphedema, we next performed tail skin/lymphatic ablations on wild-type mice and treated experimental animals with FTY720 and control animals with vehicle only for 6 weeks.
To induce lymphedema, we used a mouse tail model in which a 5 vmm portion of the mid-tail is excised and the deep lymphatic collecting vessels are ligated. Avraham et al., Am. J. Pathol. 177:3202 (2010); Clavin et al., Am. J. Physiol. Heart Circ. Physiol. 295:H2113 (2008); Rutkowski et al., Microvasc. Res. 72:161 (2006); Tabibiazar et al., PloS Med 3:e254 (2006). This model reliably results in sustained tail swelling, severe impairment in lymphatic function, and histopathologic features consistent with clinical lymphedema, lasting as long as 10 weeks after surgery. Avraham et al., Am. J. Pathol. 177:3202 (2010); Clavin et al., Am. J. Physiol. Heart Circ. Physiol. 295:H2113 (2008); Rutkowski et al., Microvasc. Res. 72:161 (2006); Tabibiazar et al., PloS Med 3:e254 (2006). In other experiments, animals were randomized to either PLND or sham surgery. PLND was performed as previously reported, removing the nodes, surrounding fat pad, and afferent/efferent lymphatics. Control animals underwent sham popliteal surgeries where a skin incision was made in the area of the popliteal lymph node without nodal resection. Although sustained lymphedema is not observed here, it has previously been described as a means of analyzing regeneration of collateral lymphatics and collecting lymphatic pumping capacity. Proulx et al., Biomaterials 34:5128 (2013); Sharma et al., Am. J. Physiol. Heart and Circul. Physiol. 292:H3109 (2007).
In other experiments, WT mice underwent tail or popliteal lymphatic ablation surgeries and were subsequently randomized to treatment with FTY720 (Sigma Aldrich, St. Louis, Mo.), an […] modulator that blocks lymphocyte egress from lymph nodes. Metzler et al., Int. Immunol. 20:633 (2008); Kharel et al., J. Biol. Chem. 280:36865 (2005). Briefly, FTY720 was dissolved in water as per the manufacturer's recommendations, and supplied ad libitum starting the day of lymphatic ablation. Mice received an estimated 1.25 mg/kg/day for 2 or 6 weeks (for PLND or tail surgeries, respectively) until tissues were harvested. […]
Tail volumes were calculated weekly using the truncated cone formula. […]
Subcutaneous adipose tissue thickness measurements were analyzed by 2 blinded reviewers (n=5-6 animals/group) using standardized cross-sections by measuring from the width of tissues bounded by the reticular dermis to the deep fascia in 4 standardized regions per section. Capillary lymphatic vessel area was quantified as previously described using Panoramic viewer software (3DHistech, Budapest, Hungary) in four 40× high-power fields/animal per group. […]

[2] = test system: CD4+ cells; assay: CD4+ cell flow cytometry of lymph nodes and hind limb skin after PLND and adoptive transfer, with or without FTY720; type: in vivo, mouse; settings: CD4KO mice, PLND, 24 hours after adoptive transfer of CD4+ cells
Method: Metzler et al., Int. Immunol. 20:633 (2008); Kharel et al., J. Biol. Chem. 280:36865 (2005). Control animals were treated with vehicle alone.
To induce lymphedema, we used a mouse tail model in which a 5 vmm portion of the mid-tail is excised and the deep lymphatic collecting vessels are ligated. Avraham et al., Am. J. Pathol. 177:3202 (2010); Clavin et al., Am. J. Physiol. Heart Circ. Physiol. 295:H2113 (2008); Rutkowski et al., Microvasc. Res. 72:161 (2006); Tabibiazar et al., PloS Med 3:e254 (2006). This model reliably results in sustained tail swelling, severe impairment in lymphatic function, and histopathologic features consistent with clinical lymphedema, lasting as long as 10 weeks after surgery. Avraham et al., Am. J. Pathol. 177:3202 (2010); Clavin et al., Am. J. Physiol. Heart Circ. Physiol. 295:H2113 (2008); Rutkowski et al., Microvasc. Res. 72:161 (2006); Tabibiazar et al., PloS Med 3:e254 (2006). […]
Culture expanded naïve CD4^+ cells (1×10^7) were suspended in 100 μL of sterile phosphate buffered saline (PBS) and adoptively transferred to CD4KO mice by weekly retro-orbital sinus injections beginning two weeks after surgery for 2 or 4 weeks (for PLND or lymphatic tail ablation, respectively), followed by sacrifice. […] Delivery of CD4^+ cells was confirmed using flow cytometry to quantify CD4^+ cells in single cell suspensions created from spleens and aortic lymph nodes. […]

[3] = test system: lymphedema; settings: cited from earlier work
[4] = FTY720 estimated 1.25 mg/kg/day in water, vs vehicle

| Compound | tail fibrosis (gross analysis) [1, 4] | tail swelling (gross analysis) [1, 4] | fibroadipose tissue deposition (thickness) ([1]; cross-sectional histology, vs vehicle control) | tail volumes (percentage change) ([1]; vs vehicle control) | CD4+ cells in the hind limb skin ([2]; vs vehicle treated PLND mice) | accumulation of CD4+ cells in the inguinal lymph node ([2]; vs vehicle, FTY720 in drinking water, estimated 1.25 mg/kg/day) | clinical success in patients with lymphedema [3] | toxicity ([3]; patients with lymphedema) |
| --- | --- | --- | --- | --- | --- | --- | --- | --- |
| CCCCCCCCc1ccc(CCC(N)(CO)CO)cc1 [FTY720, 2-amino-2-[2-(4-octylphenyl)ethyl]propane-1,3-diol] | lack of swelling and fibrosis; also recorded: markedly decreased | lack of swelling; also recorded: markedly decreased | decreased fibroadipose tissue deposition; also recorded: significant decreases | lack of swelling; also recorded: significant decreases | decreased the number of these cells in hind limb skin; also recorded: marked decrease | prevented release of CD4+ cells from the lymph node; also recorded: increased significantly |  |  |
| O=c1ccc2ccccc2o1 [Coumarin] |  |  |  |  |  |  | modest success | significant toxicity including liver failure and death |
